Laboratory results published in US11505592B2, “Diagnosis and therapy of multiple sclerosis” (PRINDEX S.R.L., priority 2015, dated 2022).
Bridges are numbered along the chain shown (N, C = ends). Where no end group is shown, it is not given here. dibromoxylene = α,α'-dibromoxylene, used to cyclize the peptide by reaction with its two cysteines

How the values were obtained:
[1] = test system: CTRL sera; assay: PEPSCAN-based ELISA, binding of control (CTRL) sera to library peptides; design: species or system human; details: ELISA binding value, CTRLs n = 10
Excerpt: (§1) The linear and CLIPS peptides are synthesized based on the amino acid sequence of the target protein using standard Fmoc-chemistry and deprotected using […] with scavengers. The constrained peptides are synthesized on chemical scaffolds in order to reconstruct conformational epitopes, using Chemically Linked Peptides on Scaffolds (CLIPS) technology (Timmerman et al. (2007). For example, the single looped peptides are synthesized containing a dicysteine, which was cyclized by treating with alpha, alpha′-dibromoxylene and the size of the loop is varied by introducing cysteine residues at variable spacing. If other cysteines besides the newly introduced cysteines are present, they are replaced by alanine. The side-chains of the multiple cysteines in the peptides are coupled to CLIPS templates by reacting onto credit-card format polypropylene PEPSCAN cards (455 peptide formats/card) with a 0.5 mM solution of CLIPS template such as 1,3-bis (bromomethyl) benzene in ammonium bicarbonate (20 mM, pH 7.9)/acetonitrile (1:1(v/v)). The cards are gently shaken in the solution for 30 to 60 minutes while completely covered in solution. Finally, the cards are washed extensively with excess of H2O and sonicated in distrupt-buffer containing 1 percent SDS/0.1 percent beta-mercaptoethanol in PBS (pH 7.2) at 70° C. for 30 minutes, followed by sonication in H2O for another 45 minutes.
(§2) The binding of antibody to each peptide is tested in a PEPSCAN-based ELISA. The 455-well credit card format polypropylene cards containing the covalently linked peptides are incubated with primary antibody solution for example consisting of 1/1000 diluted serum in blocking solution, for example 4% horse serum, 5% ovalbumin (w/v) in PBS/1% Tween. After washing, the peptides are incubated with a 1/1000 dilution of antibody peroxidase conjugate for one hour at 25° C. After washing, the peroxidase substrate 2,2′-azino-di-3-ethylbenzthiazoline sulfonate (ABTS) and 2 microlitres of 3 percent H2O2 are added. After one hour, the color development are measured. The color development are quantified with a charge coupled device (CCD)-camera and an image processing system (Slootstra et al., 1996).
(§3) The raw data are optical values obtained by a CCD-camera calibrated to export absorption values compatible with a standard 96-well plate ELISA-reader. First the CCD-camera makes a picture of the card before peroxidase coloring and then again a picture after the peroxidase coloring. These two pictures are substracted from each other yielding a binding value for each peptide.
(§4) All peptides have been synthesized in a peptide array format and the binding of 20 different sera to all peptide libraries were measured in an ELISA based set up following the procedure described in detail in the method section “Peptide synthesis and screening assays”. In particular 2 sets of experiments were performed on the 2 libraries by using 2 different dilutions of the human patients sera. In the first set of experiment the 20 sera were used at 1:2500 dilutions, while in the second experiment the dilution of the sera was 1:1000. The binding of the different sera to all peptides was quantified and analyzed in detail (Tables 1 and 2, FIGS. 15A, B, C, D and […]

[2] = test system: MS sera; assay: PEPSCAN-based ELISA, binding of MS sera to library peptides; design: species or system human; details: ELISA binding value, MS sera n = 9
Excerpt: as §1, §2, §3, §4

Sequence | MEAN CTRL ([1]; NOX2 library) | MEAN MS ([2]; NOX2 library) | MEAN CTRL ([1]; 5HT2A receptor library) | MEAN MS ([2]; 5HT2A receptor library)
CAVHNITVSEQKISEWCQNESYLNFARKRIKNC [SEQ ID NO: 126] | 370.15 | 685.667 |  | 
CAVHNITVSEQKISEWCSYLNFARKRIKNPEGC [SEQ ID NO: 133] | 375.55 | 648.556 |  | 
CAVHNITVSEQKISEWCVSEQKISEWGKIKESC [SEQ ID NO: 123] | 392.5 | 697.000 |  | 
CDSKVFKEGSSLLACKESSNEDVIGALLC [Peptide 16] |  |  | 347.50 | 604.03
CDSKVFKEGSSLLACMDILSEENTSLSSC [Peptide 28] |  |  | 236.60 | 429.00
CDSKVFKEGSSLLACSENRTNLSSEGSLC [Peptide 46] |  |  | 296.70 | 512.94
CDSKVFKEGSSLLACSGEANTSDAFNWTC [Peptide 37] |  |  | 333.75 | 623.06
CENTSLSSTTNSLMCMDILSEENTSLSSC [Peptide 17] |  |  | 175.00 | 316.22
CERIVRGQTAESLAVHCQNESYLNFARKRIKNC [SEQ ID NO: 75] | 455.55 | 833.444 |  | 
CESLAVHNITVSEQKICGDRQNESYLNFARKRC [SEQ ID NO: 136] | 409.15 | 730.278 |  | 
CESLAVHNITVSEQKICQNESYLNFARKRIKNC [SEQ ID NO: 74] | 354.9 | 689.556 |  | 
CESLAVHNITVSEQKICSYLNFARKRIKNPEGC [SEQ ID NO: 79] | 357.1 | 639.611 |  | 
CEWSVNARVNNSDPYSCPYSVALSELGDRQNEC [SEQ ID NO: 72] | 225.5 | 428.167 |  | 
CEWSVNARVNNSDPYSCQNESYLNFARKRIKNC [SEQ ID NO: 103] | 372.8 | 714.944 |  | 
CEWSVNARVNNSDPYSCVSEQKISEWGKIKESC [SEQ ID NO: 155] | 433.775 | 760.083 |  | 
CFNVEWSVNARVNNSDCGDRQNESYLNFARKRC [SEQ ID NO: 129] | 423.15 | 792.889 |  | 
CFNVEWSVNARVNNSDCVSEQKISEWGKIKESC [SEQ ID NO: 141] | 447.325 | 784.944 |  | 
CFNWTVDSENRTNLCMDILSEENTSLSSC [Peptide 30] |  |  | 174.90 | 312.00
CGDRQNESYLNFARKRCGDRQNESYLNFARKRC [SEQ ID NO: 85] | 404.05 | 775.500 |  | 
CGDRQNESYLNFARKRCQNESYLNFARKRIKNC [SEQ ID NO: 70] | 412.7 | 831.278 |  | 
CGDRQNESYLNFARKRCSYLNFARKRIKNPEGC [SEQ ID NO: 131] | 401.95 | 730.222 |  | 

Sequence | MEAN CTRL ([1]; NOX2 library) | MEAN MS ([2]; NOX2 library) | MEAN CTRL ([1]; 5HT2A receptor library) | MEAN MS ([2]; 5HT2A receptor library)
CGDRQNESYLNFARKRCVSEQKISEWGKIKESC [SEQ ID NO: 152] | 461.6 | 805.278 |  | 
CHGAERIVRGQTAESLCNFARKRIKNPEGGLYC [SEQ ID NO: 89] | 404.6 | 733.889 |  | 
CHGAERIVRGQTAESLCQKISEWGKIKESPIPC [SEQ ID NO: 101] | 407.625 | 734.917 |  | 
CHGAERIVRGQTAESLCQNESYLNFARKRIKNC [SEQ ID NO: 73] | 407.2 | 748.111 |  | 
CHGAERIVRGQTAESLCSYLNFARKRIKNPEGC [SEQ ID NO: 82] | 417.5 | 755.722 |  | 
CITVSEQKISEAAKIKC (linker 1-17 via dibromoxylene (inferred)) [SEQ ID NO: 147] | 383.25 | 703.000 |  | 
CKISEWGKIKC [SEQ ID NO: 108] | 367.95 | 672.833 |  | 
CLGDRQNESYLAAARKC [SEQ ID NO: 145] | 402.85 | 698.944 |  | 
CLNFARKRIKC [SEQ ID NO: 87] | 374.7 | 713.333 |  | 
CLNFARKRIKNAAGGLC [SEQ ID NO: 92] | 367 | 691.444 |  | 
CLQDDSKVFKEGSSCKESSNEDVIGALLC [Peptide 48] |  |  | 373.15 | 632.28
CLQDDSKVFKEGSSCMDILSEENTSLSSC [Peptide 7] |  |  | 233.80 | 434.67
CLSEENTSLSSTTNCMDILSEENTSLSSC [Peptide 39] |  |  | 184.40 | 303.50
CLSPSSLSLLHLQECMDILSEENTSLSSC [Peptide 10] |  |  | 183.45 | 305.00
CLSPSSLSLLHLQECTVDSENRTNLSSEC [Peptide 27] |  |  | 263.00 | 427.89
CLSSEGSLSPSSLSCMDILSEENTSLSSC [Peptide 26] |  |  | 188.85 | 320.72
CLTILYGYRWPAASKLC [Peptide 41] |  |  | 449.80 | 782.33
CLTILYGYRWPLPSCKESSNEDVIGALLC [Peptide 12] |  |  | 350.93 | 629.14
CLTILYGYRWPLPSCLYGYRWPLPSKLSC [Peptide 40] |  |  | 508.45 | 879.72
CLTILYGYRWPLPSCMDILSEENTSLSSC [Peptide 2] |  |  | 228.85 | 421.56
CLTILYGYRWPLPSKLC [Peptide 35] |  |  | 475.00 | 792.94

Sequence | MEAN CTRL ([1]; NOX2 library) | MEAN MS ([2]; NOX2 library) | MEAN CTRL ([1]; 5HT2A receptor library) | MEAN MS ([2]; 5HT2A receptor library)
CLYGYRWPLPSKLSCKESSNEDVIGALLC [Peptide 20] |  |  | 390.93 | 689.03
CLYGYRWPLPSKLSCMDILSEENTSLSSC [Peptide 4] |  |  | 246.80 | 449.78
CLYGYRWPLPSKLSCSDAFNWTVDSENRC [Peptide 36] |  |  | 298.55 | 511.11
CLYGYRWPLPSKLSCSGEANTSDAFNWTC [Peptide 43] |  |  | 344.80 | 649.67
CLYGYRWPLPSKLSCYSNDFNSGEANTSC [Peptide 32] |  |  | 288.50 | 555.67
CMDILSEENTSLSSCMQLNDDTRLYSNDC [Peptide 21] |  |  | 223.85 | 392.28
CMDILSEENTSLSSCSKESSNEDVIGALC [Peptide 44] |  |  | 266.55 | 432.33
CMQLNDDTRLYSNDCMDILSEENTSLSSC [Peptide 9] |  |  | 212.40 | 379.67
CMQLNDDTRLYSNDCSGEANTSDAFNWTC [Peptide 15] |  |  | 257.25 | 497.78
CNDDTRLYSNDFNSCMDILSEENTSLSSC [Peptide 24] |  |  | 196.45 | 350.67
CNESYLNFARKAAKNPC [SEQ ID NO: 86] | 411.15 | 702.222 |  | 
CNFARKRIKNC [SEQ ID NO: 60] | 374.6 | 748.389 |  | 
CNFARKRIKNPEGGLYCGDRQNESYLNFARKRC [SEQ ID NO: 117] | 425.15 | 800.500 |  | 
CNFARKRIKNPEGGLYCQNESYLNFARKRIKNC [SEQ ID NO: 65] | 410.85 | 801.056 |  | 
CNFARKRIKNPEGGLYCSLAVHNITVSEQKISC [SEQ ID NO: 106] | 330.8 | 599.000 |  | 
CNFARKRIKNPEGGLYCSYLNFARKRIKNPEGC [SEQ ID NO: 97] | 416.6 | 752.333 |  | 
CNITVSEQKISAAGKIC [SEQ ID NO: 105] | 460.55 | 828.167 |  | 
CNITVSEQKISEWGKICGDRQNESYLNFARKRC [SEQ ID NO: 144] | 446.7 | 816.722 |  | 
CNITVSEQKISEWGKICQNESYLNFARKRIKNC [SEQ ID NO: 81] | 408.8 | 770.889 |  | 
CNITVSEQKISEWGKICSYLNFARKRIKNPEGC [SEQ ID NO: 99] | 397.7 | 738.444 |  | 
